Data on 39 compounds can be found in patent publication US20160362408A1 (Bayer Pharma Aktiengesellschaft, priority 2013, published 2016).

The assay has as its target T1, recombinant guanylate cyclase reporter cell line (Rattus norvegicus, UniProt P19686+P20595).
T1 construct: expressed in transfected cells
T1 sequence (P19686 1-690): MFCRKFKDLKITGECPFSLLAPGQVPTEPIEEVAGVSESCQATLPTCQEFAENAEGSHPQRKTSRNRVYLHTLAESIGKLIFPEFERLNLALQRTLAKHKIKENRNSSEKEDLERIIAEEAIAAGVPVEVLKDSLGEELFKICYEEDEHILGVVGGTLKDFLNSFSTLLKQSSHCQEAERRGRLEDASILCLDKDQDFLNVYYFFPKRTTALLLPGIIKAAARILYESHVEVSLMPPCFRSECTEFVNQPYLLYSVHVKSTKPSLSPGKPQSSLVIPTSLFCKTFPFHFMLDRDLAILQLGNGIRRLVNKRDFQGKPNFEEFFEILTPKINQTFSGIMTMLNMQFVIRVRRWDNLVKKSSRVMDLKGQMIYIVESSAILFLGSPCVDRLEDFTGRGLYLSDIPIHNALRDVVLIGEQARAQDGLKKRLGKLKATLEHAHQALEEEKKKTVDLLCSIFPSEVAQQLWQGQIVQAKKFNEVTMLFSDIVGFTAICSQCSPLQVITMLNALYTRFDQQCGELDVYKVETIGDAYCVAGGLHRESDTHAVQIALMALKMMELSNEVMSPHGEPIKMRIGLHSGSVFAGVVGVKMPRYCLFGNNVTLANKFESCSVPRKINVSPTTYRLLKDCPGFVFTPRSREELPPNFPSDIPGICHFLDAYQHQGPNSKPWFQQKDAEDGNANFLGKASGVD
T1 sequence (P20595 1-619): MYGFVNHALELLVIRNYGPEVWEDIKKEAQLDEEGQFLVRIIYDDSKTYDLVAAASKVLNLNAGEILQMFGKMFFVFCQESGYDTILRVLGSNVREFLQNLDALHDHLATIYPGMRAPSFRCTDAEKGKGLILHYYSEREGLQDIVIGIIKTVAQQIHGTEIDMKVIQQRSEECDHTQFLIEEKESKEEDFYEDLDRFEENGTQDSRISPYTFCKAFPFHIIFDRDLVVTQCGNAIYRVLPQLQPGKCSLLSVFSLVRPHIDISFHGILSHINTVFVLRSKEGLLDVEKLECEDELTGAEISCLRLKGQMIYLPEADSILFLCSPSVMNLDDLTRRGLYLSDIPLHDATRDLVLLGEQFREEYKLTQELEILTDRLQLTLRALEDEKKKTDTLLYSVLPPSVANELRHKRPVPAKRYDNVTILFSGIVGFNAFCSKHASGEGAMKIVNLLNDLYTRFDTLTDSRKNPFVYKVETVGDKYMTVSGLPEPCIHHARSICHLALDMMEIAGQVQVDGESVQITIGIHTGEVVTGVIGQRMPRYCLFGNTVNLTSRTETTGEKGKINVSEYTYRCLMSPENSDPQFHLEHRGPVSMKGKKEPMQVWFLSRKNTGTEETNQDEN
As to the kind of experiment: Effect on a recombinant guanylate cyclase reporter cell line. The settings on record: MEC = minimum effective concentration; in some cases mean values for individual determinations. The assay is classed as cell-based. As to the method: B-2. Effect on a Recombinant Guanylate Cyclase Reporter Cell Line
The cellular action of the compounds of the invention is determined using a recombinant guanylate cyclase reporter cell line, as described in F. Wunder et al., Anal. Biochem. 339, 104-112 (2005).
Representative MEC values (MEC=minimum effective concentration) for the compounds of the invention are shown in the table below (in some cases as mean values for individual determinations): […]

Counter-ions that a name gives are not always drawn.

Regarding `Cc1n[nH]c(C)c1NC(=O)c1c(C)nc2c(OCc3c(F)cccc3F)cc(N3CCCC3)cn12` [Example 50, 8-[(2,6-difluorobenzyl)oxy]-N-(3,5-dimethyl-1H-pyrazol-4-yl)-2-methyl-6-(pyrrolidin-1-yl)imidazo[1,2-a]pyridine-3-carboxamide], the MEC is 1.0 µM.

`Cc1n[nH]c(C)c1NC(=O)c1c(C)nc2c(OCc3c(F)cccc3F)cc(N3CCOCC3)cn12` [Example 51, 8-[(2,6-difluorobenzyl)oxy]-N-(3,5-dimethyl-1H-pyrazol-4-yl)-2-methyl-6-(morpholin-4-yl)imidazo[1,2-a]pyridine-3-carboxamide]: the MEC stood at 1.0 µM.

Consider `Cc1cc(OCc2c(F)cccc2F)c2nc(C)c(C(=O)Nc3c(C)n[nH]c3C)n2c1` [Example 52, 8-[(2,6-difluorobenzyl)oxy]-N-(3,5-dimethyl-1H-pyrazol-4-yl)-2,6-dimethylimidazo[1,2-a]pyridine-3-carboxamide], for which the MEC was 0.65 µM.

Take `Cc1n[nH]c(C)c1NC(=O)c1c(C)nc2c(OCc3cccc(F)c3F)cc(Cl)cn12` [Example 53, 6-chloro-8-[(2,3-difluorobenzyl)oxy]-N-(3,5-dimethyl-1H-pyrazol-4-yl)-2-methylimidazo[1,2-a]pyridine-3-carboxamide]: the MEC came out at 1.0 µM.

In the case of `Cc1nc2c(OCc3c(F)cccc3F)cccn2c1C(=O)Nc1ccnc2ccc(F)cc12` [Example 54, 8-[(2,6-Difluorobenzyl)oxy]-N-(6-fluoroquinolin-4-yl)-2-methylimidazo[1,2-a]pyridine-3-carboxamide], the MEC was determined as 0.03 µM.

As for `Cc1nc2c(OCc3c(F)cccc3F)cccn2c1C(=O)Nc1c(-c2ccccc2)noc1C` [Example 55, 8-[(2,6-Difluorobenzyl)oxy]-2-methyl-N-(5-methyl-3-phenyl-1,2-oxazol-4-yl)imidazo[1,2-a]pyridine-3-carboxamide], the MEC is 1.0 µM.

Turning to `Cc1nc2c(OCc3c(F)cccc3F)cccn2c1C(=O)Nc1cccc2ccccc12` [Example 56, 8-[(2,6-difluorobenzyl)oxy]-2-methyl-N-(naphthalen-1-yl)imidazo[1,2-a]pyridine-3-carboxamide], the MEC stood at 0.1 µM.

Take `Cc1nn(C)c(C)c1NC(=O)c1c(C)nc2c(OCc3c(F)cccc3F)cccn12` [Example 57, 8-[(2,6-Difluorobenzyl)oxy]-2-methyl-N-(1,3,5-trimethyl-1H-pyrazol-4-yl)imidazo[1,2-a]pyridine-3-carboxamide]: the MEC came to 3.0 µM.

Consider `Cc1cccc(C)c1NC(=O)c1c(C)nc2c(OCc3c(F)cccc3F)cccn12` [Example 58, 8-[(2,6-difluorobenzyl)oxy]-N-(2,6-dimethylphenyl)-2-methylimidazo[1,2-a]pyridine-3-carboxamide], for which the MEC is 0.3 µM.

Take `Cc1nc2c(OCc3c(F)cccc3F)cccn2c1C(=O)Nc1nccc2ccccc12` [Example 59, 8-[(2,6-difluorobenzyl)oxy]-N-(isoquinolin-1-yl)-2-methylimidazo[1,2-a]pyridin-3-carboxamide trifluoroacetate]: the MEC was found to be 1.0 µM.

In the case of `Cc1nc2c(OCc3c(F)cccc3F)cccn2c1C(=O)Nc1cccc2cccc(Cl)c12` [Example 60, N-(8-Chloronaphthalen-1-yl)-8-[(2,6-difluorobenzyl)oxy]-2-methylimidazo[1,2-a]pyridine-3-carboxamide trifluoroacetate], the MEC was determined as 0.3 µM.

For `Cc1nc2c(OCc3c(F)cccc3F)cccn2c1C(=O)Nc1cccc2cc(Cl)ccc12` [Example 61], the MEC amounted to 0.3 µM.

Turning to `Cc1nc2c(OCc3c(F)cccc3F)cccn2c1C(=O)Nc1ccc(Cl)c2ccccc12` [Example 62], the MEC was determined as 1.0 µM.

For `Cc1ccc2c(NC(=O)c3c(C)nc4c(OCc5c(F)cccc5F)cccn34)c(C)ccc2n1` [Example 63], the MEC turned out to be 0.3 µM.

With `Cc1ccc2c(NC(=O)c3c(C)nc4c(OCc5c(F)cccc5F)cccn34)cccc2n1` [Example 64], the MEC was 0.2 µM.

With `Cc1ccc2cccnc2c1NC(=O)c1c(C)nc2c(OCc3c(F)cccc3F)cccn12` [Example 65], the MEC was 1.0 µM.

`Cc1ccc2ccccc2c1NC(=O)c1c(C)nc2c(OCc3c(F)cccc3F)cccn12` [Example 66]: the MEC is 0.1 µM.

Regarding `Cc1nc2c(OCc3c(F)cccc3F)cccn2c1C(=O)Nc1cccc2cnccc12` [Example 67], the MEC is 0.3 µM.

Regarding `Cc1nc2c(OCc3c(F)cccc3F)cccn2c1C(=O)Nc1cccc2ncccc12` [Example 68], the MEC is 0.3 µM.

Turning to `Cc1cc(NC(=O)c2c(C)nc3c(OCc4c(F)cccc4F)cccn23)c2ccccc2n1` [Example 69], the MEC was 0.55 µM.

For `Cc1cc2c(NC(=O)c3c(C)nc4c(OCc5c(F)cccc5F)cccn34)cccc2nn1` [Example 70], the MEC is 0.3 µM.

With `Cc1nc2c(OCc3c(F)cccc3F)cccn2c1C(=O)Nc1ccnc2ccc(Cl)cc12` [Example 71], the MEC worked out at 0.1 µM.

As to `Cc1nc2c(OCc3c(F)cccc3F)cccn2c1C(=O)Nc1ccc(C)c2ncccc12` [Example 72], the MEC was 0.3 µM.

In the case of `Cc1nc2c(OCc3c(F)cccc3F)cccn2c1C(=O)Nc1cccc2ccc(O)cc12` [Example 74], the MEC worked out at 1.0 µM.

With `Cc1nc2c(OCc3c(F)cccc3F)cccn2c1C(=O)Nc1c(C(F)(F)F)n[nH]c1C` [Example 76, 8-[(2,6-Difluorobenzyl)oxy]-2-methyl-N-[5-methyl-3-(trifluoromethyl)-1H-pyrazol-4-yl]imidazo[1,2-a]pyridine-3-carboxamide], the MEC was 0.1 µM.

As for `Cc1nc2c(OCc3c(F)cccc3F)cccn2c1C(=O)Nc1ccnc2cc(Cl)ccc12` [Example 77, N-(7-Chloroquinolin-4-yl)-8-[(2,6-difluorobenzyl)oxy]-2-methylimidazo[1,2-a]pyridine-3-carboxamide], the MEC was 0.1 µM.

As to `Cc1nc2c(OCc3c(F)cccc3F)cccn2c1C(=O)Nc1ccnc2c(F)cccc12` [Example 78], the MEC amounted to 1.0 µM.

With `Cc1nc2c(OCc3c(F)cccc3F)cccn2c1C(=O)Nc1ccnc2ccc(C(F)(F)F)cc12` [Example 79], the MEC was found to be 0.1 µM.

For `Cc1nc2c(OCc3c(F)cccc3F)cccn2c1C(=O)Nc1n[nH]c2ccccc12` [Example 80, 8-[(2,6-Difluorobenzyl)oxy]-N-(1H-indazol-3-yl)-2-methylimidazo[1,2-a]pyridine-3-carboxamide], the MEC came to 0.3 µM.

As for `Cc1nc2c(OCc3c(F)cccc3F)cccn2c1C(=O)Nc1cn(C)nc1CO` [Example 81], the MEC turned out to be 1.0 µM.

With `Cc1nc2c(OCc3c(F)cccc3F)cc(Cl)cn2c1C(=O)Nc1cnn2ccccc12` [Example 82], the MEC came to 0.3 µM.

As for `Cc1nc2c(OCc3c(F)cccc3F)cccn2c1C(=O)Nc1nnc(CCOC(C)C)s1` [Example 83], the MEC turned out to be 3.0 µM.

For `Cc1nc2c(OCc3c(F)cccc3F)cccn2c1C(=O)Nc1nnc(C2CC2)s1` [Example 84], the MEC amounted to 3.0 µM.

Consider `Cc1cc(OCc2c(F)cccc2F)c2nc(C)c(C(=O)Nc3cnn(CC(F)(F)F)c3)n2c1` [Example 85], for which the MEC was determined as 0.1 µM.

For the compound `Cc1cc(OCc2c(F)cccc2F)c2nc(C)c(C(=O)Nc3cnn(CCO)c3)n2c1` [Example 86], the MEC stood at 0.3 µM.

Regarding `Cc1cc(OCc2c(F)cccc2F)c2nc(C)c(C(=O)Nc3c(C)nn(CCO)c3C)n2c1` [Example 87], the MEC came out at 0.3 µM.

Turning to `Cc1nc2c(OCc3c(F)cccc3F)cccn2c1C(=O)Nc1c(C(C)(C)O)n[nH]c1C` [Example 88], the MEC was 0.65 µM.

Take `Cc1cc(OCc2c(F)cccc2F)c2nc(C)c(C(=O)Nc3cnn(COCC(F)(F)F)c3)n2c1` [Example 89]: the MEC was found to be 0.1 µM.

`Cc1nc2c(OCc3c(F)cccc3F)cccn2c1C(=O)Nc1cnn(COCC(F)(F)F)c1` [Example 90]: the MEC stood at 0.3 µM.
